Measurements taken from ChEMBL document CHEMBL1146672, “Discovery and SAR development of 2-(phenylamino) imidazolines as prostacyclin receptor antagonists [corrected]” (Bioorg Med Chem Lett, 2004).

system: SH-SY5Y; assay: Compound was tested for antagonism of carbaprostacyclin-stimulated cAMP accumulation in human SH-SY5Y neuroblastoma cells; format: functional; details: not given

In order of falling pKB:
1. CCCCOc1ccc(Cc2ccc(NC3=NCCN3)cc2)cc1  9
2. c1cc(NC2=NCCN2)ccc1Cc1ccc(OC2CCCC2)cc1  8.9
3. CC(C)Oc1ccc(Cc2ccc(NC3=NCCN3)cc2)cc1  8.8
4. CCCOc1ccc(Cc2ccc(NC3=NCCN3)cc2)cc1  8.8
5. CC(C)COc1ccc(Cc2ccc(NC3=NCCN3)cc2)cc1  8.8
6. FC(F)(F)COc1ccc(Cc2ccc(NC3=NCCN3)cc2)cc1  8.7
7. c1cc(NC2=NCCN2)ccc1Cc1ccc(OC2CCCCC2)cc1  8.6
8. c1cc(NC2=NCCN2)ccc1Cc1ccc(OCC2CCOCC2)cc1  8.5
9. c1cc(NC2=NCCN2)ccc1Cc1ccc(OC2CCOCC2)cc1  8.4
10. CCCCCCOc1ccc(Cc2ccc(NC3=NCCN3)cc2)cc1  8.2
11. CCOc1ccc(Cc2ccc(NC3=NCCN3)cc2)cc1  8.2
12. OCCOc1ccc(Cc2ccc(NC3=NCCN3)cc2)cc1  8
13. COCCOc1ccc(Cc2ccc(NC3=NCCN3)cc2)cc1  8
14. c1ccc(COc2ccc(Cc3ccc(NC4=NCCN4)cc3)cc2)cc1  7.7
15. COc1ccc(Cc2ccc(NC3=NCCN3)cc2)cc1  7.7

system: Rattus norvegicus; assay: Effective dose was determined against carrageenan-induced paw hyperalgesia in the rat on peroral administration; format: functional; details: po

Compound `CC(C)Oc1ccc(Cc2ccc(NC3=NCCN3)cc2)cc1` has an ED50 of 18 mg/kg.

system: Rattus norvegicus; assay: Effective dose was determined for analgesic activity in rat on i.p. administration using acetic acid induced writhing assay; format: functional; details: ip

Work on `CC(C)Oc1ccc(Cc2ccc(NC3=NCCN3)cc2)cc1` yielded an ED50 of 4 mg/kg.

system: Rattus norvegicus; assay: Effective dose was determined against carrageenan-induced paw hyperalgesia in the rat on i.v. administration; format: functional; details: iv

`CC(C)Oc1ccc(Cc2ccc(NC3=NCCN3)cc2)cc1` showed an ED50 of 2.8 mg/kg.
